In US20250186321A1, “FORMULATION USING AMINO ACID AND CARBOXYLIC ACID, ORGANIC SALT, AND COMPOSITION COMPRISING SAME AND USE THEREOF” (MIYOSHI OIL & FAT CO., LTD., priority 2021, published 2025):

Experiments:
Escherichia coli [1] = experiment: Antibacterial evaluation of antibacterial composition (with paraben); assay type: cell-based; conditions: 1.0 mg/mL paraben and/or 1.0 mg/mL formulation
Method: (§1) Working examples 556 to 583 and the comparative example 19 shown in Tables 8A and 8B were subjected to the minimum inhibitory concentration (MIC) test against Escherichia coli and Staphylococcus aureus by the broth microdilution method (as described in the standard method of the Japanese Society of Chemotherapy) to study antibacterial activities of the formulations (organic salt). Formulation (organic salt) concentrations at 250, 200, 150, 100, 50, 25, 12.5, 8, 4, 2, 0.8, 0.4, 0.2, 0.1, 0.05 mg/mL were evaluated, and the MICs are shown in Tables 8A and 8B.
(§2) Antibacterial compositions prepared to have the composition having the components (A) and (B) and paraben in an equal amount (working examples 597 to 612, wherein 1.0 mg/mL of paraben and 1.0 mg/mL of the respective working examples 597 to 612 are combined to be 2.0 mg/mL of the composition); the comparative example 27 containing only of water and paraben (at the concentration of 1.0 mg/mL of paraben); and reference example 1 containing L-lysine and citric acid (at the concentration of 1.0 mg/mL) were each subjected to a test performed by a method similar to and as explained in the section of 9-1 based on the presence or absence of the bacterial growth to evaluate the presence or absence of the antibacterial activity.

Staphylococcus aureus [2] = experiment: as above; assay type: cell-based; conditions: 1.0 mg/mL paraben and/or 1.0 mg/mL formulation
Method: as §1, §2

[3] = Appearance of formulation (state at 25° C.); assay type: physicochemical; conditions: Tables 2A/2B; formulation at the compounding molar ratio listed
[4] = Appearance of formulation (state at 25° C.); assay type: physicochemical; conditions: 25° C.
Method: Formulations 1 to 427 shown in Tables 1A to 1D were prepared by the above-described method using the components (A) and (B) at the compounding molar ratios shown in the tables, and their states at 25° C. were observed.

[5] = Water retention evaluation (moisture reduction rate); assay type: physicochemical; conditions: for Moisture eduction rate / Moisture content before test (A): 80 wt. % aqueous solution; for Moisture eduction rate: 24 hours at 35° C. and 25% RH, calculated from A and B; for Moisture content before test (A): Karl Fischer; for Presence or absence of hydrates: left until the moisture content remained unchanged, based on final moisture content
Method: 80 wt. % aqueous solutions of the formulations (organic salts) of the working examples 428 to 459 and comparative examples 1 to 5 in Tables 2A and 2B were prepared, and the water contents were measured using a Karl Fischer moisture meter (CA-200 manufactured by Mitsubishi Chemical Analytech Co., Ltd.). It was confirmed that the water contents of them were 20.0 wt. % (moisture content before test: A). Each of the 1.0 g samples was added to a screw tube, and left uncovered to stand still for 24 hours in a constant temperature and humidity bath (KCL-2000W manufactured by Tokyo Rikakikai Co., Ltd.) which was set at 35° C. and 25% RH. Moisture contents after being left for 24 hours were measured again (moisture content after test: B) to evaluate their water retention property by using the following formula for calculating the moisture reduction rates. After that, it was left to stand still until the moisture content remained unchanged, and determinations of the hydrate and the number of hydrated water were made based on the final moisture contents. • Moisture content before test: A (%) • Moisture content after test: B (%)

Escherichia coli [6] = experiment: Antibacterial property evaluation 1 (minimum inhibitory concentration, broth microdilution); assay type: cell-based; conditions: broth microdilution method
From the text: (§3) The following reagents, etc, were used for minimum inhibitory concentration (MIC) measurement and halo test. • Staphylococcus aureus: strain of NBRC15035, NITE • Escherichia coli: strain of […], NITE • Potassium lactate manufactured by Fujifilm Wako Pure Chemical • Medium of Muller-Hinton broth: Becton, Dickinson and Company • Media for revival of L-dried specimens “DAIGO” manufactured by Fujifilm Wako Pure Chemical • Calcium chloride manufactured by Fuji Film Wako Pure Chemical • Magnesium chloride manufactured by Fuji Film Wako Pure Chemical • Skim milk: Megmilk Snow Brand • Meat extract: from Solabia Biokar Diagnostics • Peptone: from Solabia Biokar Diagnostics • Sodium chloride manufactured by Fuji Film Wako Pure Chemical • Agar manufactured by Fuji Film Wako Pure Chemical
as §1

Staphylococcus aureus [7] = experiment: as above; assay type: cell-based; conditions: broth microdilution method
From the text: as §3, §1

[8] = Evaluation on permeability to skin (tape stripping, ascorbyl glucoside); assay type: in vivo; conditions: scale 1(Slow) to 5(Fast), 10 wt. % aqueous solution with 5 wt. % ascorbyl glucoside, layers 1 to 8, 5 test subjects
Method: As for the comparative example 33, ascorbyl glucoside was added so as to be 5% by mass with respect to water to prepare a sample solution. Then, a cotton material impregnated with the prepared 750 μL sample solution was applied to a 1 cm×3 cm area of the inner side of an upper arm for each of the 5 test subjects who have been kept in quiet for 30 minutes under constant temperature and humidity, and allowed to stand still for 5 minutes. After removing the cotton material, a new cotton material was used to remove the sample having been left on the skin surface and then allowed to stand still for 30 minutes. The horns in the first to eighth layers were then harvest from the application site using a Cellotape® (manufactured by Nichiban Co., Ltd.), and all of the layers obtained from the tape were used as samples for assay.
The obtained sample for assay was then extracted with 2 ml of ion-exchange water over the course of 10 min. […] The measured values of the samples for assay that were harvested from the 5 test subjects were averaged, and the averaged value was regarded as the permeation amount (μg/cm^2) to make a comparison of the total permeation amounts for the first to eighth layers. […]

COC(=O)c1ccc(O)cc1 [compound 27, methylparaben]
presence or absence of the antibacterial activity (Escherichia coli [1]): does not exhibit any antibacterial activity
presence or absence of the antibacterial activity (Staphylococcus aureus [2]): does not exhibit any antibacterial activity

CC(O)C(=O)[O-].[K+] (centres unmarked) [Formulation 428]
state at 25° C. [3]: Solid
state at 25° C. [4]: Solid
Moisture eduction rate [5]: 87.5%
Moisture content before test (A) [5]: 20.0%
Presence or absence of hydrates [5]: Absent
MIC Escherichia coli (Escherichia coli [6]): 100 mg/mL
MIC Staphylococcus aureus (Staphylococcus aureus [7]): 150 mg/mL

OCC(O)CO [Formulation 432]
state at 25° C. [3]: Liquid
Moisture eduction rate [5]: 89.7%
Moisture content before test (A) [5]: 20.0%
Presence or absence of hydrates [5]: Absent
Relative infiltration rates of active component (ascorbyl glucoside) into skin [8]: 5
